Tests used:
EEF2 = molecular target: T1, EEF2 (Homo sapiens, UniProt P13639); experiment: CESTA-WB (cellular thermal shift assay-Western blotting), H1299 cell lysate; format: binding; details: ATCA 10 nM to 10 mM, 55° C. for 3 min, FIG. 1
T1 construct: a cell lysate was collected and centrifuged at 17,000 g; endogenous in cells; host or cells: H1299
Description: (§1) CESTA-WB experiment: H1299 cells were plated and cultured in a 15 cm dish, and when a cell density reached about 90% to 100%, the medium was aspirated; the cells were washed twice with PBS, and 2 mL of Lysis Buffer (RB Buffer, 10% N-Dodecyl-β-D-maltoside, and 1× protease inhibitor) was added to each dish and placed flatly on ice to allow lysis for 30 min, and a cell lysate was collected and centrifuged at 17,000 g, 4° C. for 10 min; a resulting supernatant was quantified using a BCA kit. 45 μL of a whole protein was added in a PCR tube, ATCA was added to final concentrations of 10 mM, 1 mM, 100 μM, 10 μM, 1 μM, 100 nM, and 10 nM, respectively, and allowed to stand at 25° C. for 30 min to allow the ATCA to fully interact with the whole protein; while another two tubes without ATCA were taken as controls. The experimental group was treated at 55° C. for 3 min, while one tube in the control group was treated at 37° C. for 3 min, and the other tube was treated at 50° C. for 3 min; centrifugation was conducted at 17,000×g for 10 min at 4° C. to remove denatured proteins. The supernatant was transferred into a new PCR tube, and 5 μg of the supernatant was added into 5×SDS Loading Buffer to allow denaturation in a 100° C. water bath; the Western Blotting was conducted to quantify EEF2, EIF2S1, B-actin, and Vinculin proteins.
(§2) Western Blotting experiment: the sample and molecular weight standard of pre-stained protein were loaded onto an SDS-PAGE gel (10 cmx 10 cm) to allow electrophoresis at 100 V for 40 min. The proteins in SDS-PAGE were transferred to nitrocellulose membrane at 100 V, 230 mA within 1 h. After transfer, the nitrocellulose membrane was washed with 25 mL of TBS for 5 min at room temperature. The nitrocellulose membrane was placed in 25 mL of blocking buffer (TBST, 5% skim milk) and incubated at room temperature for 1 h. The membrane was washed three times with 15 mL TBST, 5 min each. […]

EIF2S1 = molecular target: T2, EIF2S1 (Homo sapiens, UniProt P05198); experiment: as above; format: binding; details: ATCA 10 nM to 10 mM, 55° C. for 3 min, FIG. 1
T2 construct: endogenous in cells; host or cells: H1299
Description: as §1, §2

Vinculin = molecular target: T3, Vinculin (Homo sapiens, UniProt P18206); experiment: as above; format: binding; details: ATCA 10 nM to 10 mM, 55° C. for 3 min, FIG. 1
T3 construct: endogenous in cells; host or cells: H1299
T3 sequence (P18206 1-1066 isoform P18206-2): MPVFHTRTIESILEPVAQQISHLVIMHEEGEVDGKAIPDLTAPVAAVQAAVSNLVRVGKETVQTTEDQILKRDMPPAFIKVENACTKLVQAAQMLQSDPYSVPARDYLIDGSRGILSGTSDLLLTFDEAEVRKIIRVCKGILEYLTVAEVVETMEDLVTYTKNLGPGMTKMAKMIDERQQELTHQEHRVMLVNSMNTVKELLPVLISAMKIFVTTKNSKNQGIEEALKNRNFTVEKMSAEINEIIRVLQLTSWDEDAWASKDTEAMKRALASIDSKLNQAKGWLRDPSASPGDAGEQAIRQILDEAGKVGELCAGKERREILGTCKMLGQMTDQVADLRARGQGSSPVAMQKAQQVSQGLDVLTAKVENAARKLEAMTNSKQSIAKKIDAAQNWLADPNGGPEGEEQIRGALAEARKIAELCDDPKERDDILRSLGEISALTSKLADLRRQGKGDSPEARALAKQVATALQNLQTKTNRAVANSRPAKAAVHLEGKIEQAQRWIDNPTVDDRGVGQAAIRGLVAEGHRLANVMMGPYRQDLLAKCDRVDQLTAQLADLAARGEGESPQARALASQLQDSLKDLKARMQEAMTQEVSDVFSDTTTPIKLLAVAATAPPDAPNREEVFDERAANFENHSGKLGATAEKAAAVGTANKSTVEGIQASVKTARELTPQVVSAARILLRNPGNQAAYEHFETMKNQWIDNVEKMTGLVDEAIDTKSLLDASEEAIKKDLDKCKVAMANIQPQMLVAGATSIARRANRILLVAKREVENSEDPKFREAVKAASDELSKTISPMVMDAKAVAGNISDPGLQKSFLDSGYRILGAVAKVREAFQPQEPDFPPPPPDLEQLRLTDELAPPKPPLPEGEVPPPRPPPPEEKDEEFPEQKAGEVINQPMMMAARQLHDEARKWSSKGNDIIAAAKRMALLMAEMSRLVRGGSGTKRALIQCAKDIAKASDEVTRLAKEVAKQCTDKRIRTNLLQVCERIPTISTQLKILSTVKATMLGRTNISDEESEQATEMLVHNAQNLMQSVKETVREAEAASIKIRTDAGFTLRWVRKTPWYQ
Description: as §1, §2

[1] = test system: lung adenocarcinoma cells A549; experiment: Apoptosis by Annexin V and propidium iodide staining, flow cytometry; format: cell-based; details: 0.5 mg/mL ATCA, P<0.05, n=4
Source text: (§3) In the experiment of ATCA inducing apoptosis in lung cancer cells, Annexin V and propidium iodide were used to stain the cancer cells and then detected by flow cytometry.

[2] = test system: lung adenocarcinoma cells H1299; experiment: as above; format: cell-based; details: 0.5 mg/mL ATCA, P<0.05, n=4
Source text: as §3

normal lung cells HBE = experiment: as above; format: cell-based; details: 0.5 mg/mL ATCA

T2 sequence (P05198 whole entry): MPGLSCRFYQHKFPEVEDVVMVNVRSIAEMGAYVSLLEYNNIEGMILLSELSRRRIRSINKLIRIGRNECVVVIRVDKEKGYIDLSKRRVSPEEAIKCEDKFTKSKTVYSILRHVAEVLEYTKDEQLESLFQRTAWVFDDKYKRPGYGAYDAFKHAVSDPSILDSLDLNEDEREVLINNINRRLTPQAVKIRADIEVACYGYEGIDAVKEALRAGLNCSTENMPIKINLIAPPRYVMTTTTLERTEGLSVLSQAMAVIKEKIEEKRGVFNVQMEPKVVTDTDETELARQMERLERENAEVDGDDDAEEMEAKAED

## O=C(O)C1=CC(=C(c2ccc(O)c(C(=O)O)c2)c2ccc(O)c(C(=O)O)c2)C=CC1=O [ATCA, aurintricarboxylic acid]
EEF2
  binding to non-target protein EEF2: did not bind
EIF2S1
  binding to target protein EIF2S1: binds
Vinculin
  binding to non-target protein Vinculin: did not bind
[1]
  apoptosis of A549 cells: significant apoptosis
[2]
  apoptosis of H1299 cells: significant apoptosis
Normal lung cells HBE
  apoptosis of normal lung cells HBE: did not show apoptosis

— patent US20250222011A1, “DRUG TARGET FOR INHIBITING TUMOR, USE, AND ORAL DRUG” (CHI BIOTECH CO., LTD., priority 2024, published 2025)
